Data as given in patent US10761045B2, “Sensor, sensor system, method of manufacturing sensor, and method of measuring concentration of target substance” (PHC Holdings Corporation, priority 2010, dated 2020).
≈ marks a conversion by molar mass, not a printed value. Like-named read-outs stand apart in the source and are kept apart here. One block for each compound: values may come before it.

Assays:
[1] = Stability test (exposure test) of sensor at 30° C., 80% humidity; details: for Sensor stability % change in response current value between before and after 24 hours exposure at 30° C. and 80% humidity: additive in reagent layer, additive conc. 1.0-5.0 mM; for change in the response current value after the exposure test: 24 hours at 30° C., 80% relative humidity
Description: Sensors were manufactured in the same manner as described in section [1-5] using the reagent solutions prepared above. The sensors manufactured were exposed to an environment of high temperature and humidity (30° C., 80% relative humidity) for 24 hours. Response current values of the pre- and post-exposed sensors were measured for a series of glucose solutions of known concentrations.
Sensors were manufactured using fresh reagent solutions having the same compositions as described above. The sensors were subjected to an exposure experiment where they were allowed to stand for 24 hours at 30° C. and 80% humidity. Response current values of non-exposed sensors (i.e., sensors stored under the ambient condition (25° C., 5% humidity) for 24 hours) and the exposed sensors were measured for a series of glucose solutions of known concentrations.

[2] = Solubility in water of mediators; type: physicochemical; details: for solubility: water
From the text: Solubilities in water of Compounds A, B, H′, I, I′ and J and disodium 9,10-phenanthrenequinone 2,7-disulfonate are given in Table 1.

[3] = Cyclic voltammetry of mediators, redox potential vs Ag|AgCl; type: physicochemical; details: reference Ag|AgCl; for Eox (V): potential at peak oxidation current; for Ered (V): potential at peak reduction current; for EO′ (V) [(Ered + Eox)/2]: redox potential, average of Ered and Eox
Description: Redox potential (EO′) was calculated in the following procedure. Specifically, cyclic voltammetry using Ag|AgCl as the reference electrode was performed under the same conditions as those in Examples to be described later. Redox potential (EO′) was found as an average of the potential value at the peak oxidation current (Eox) and the potential value at the peak reduction current (Ered), i.e., [(Ered+Eox)/2].
Cyclic voltammetry was performed for the resultant reagent solution using the aforementioned sensor electrode. As a reference electrode, a silver/silver chloride (saturated potassium chloride) electrode (hereinafter “Ag|AgCl”) was used. The reference electrode was led to vent hole 61 of the sensor electrode via a salt bridge. A potentiostat was used for measurement. The electrodes and the potentiostat used were those commonly used in electrochemistry. These instruments can be purchased from BAS Inc., for example.
In cyclic voltammetry, a potential applied to the working electrode was swept linearly with respect to time. The sweeping rate was set to 0.1 V/second. First, a first potential was applied to the working electrode, and the electrode potential was swept toward negative potentials from the first potential to a second potential. The electrode potential was then swept back from the second potential to the first potential toward positive potentials. The first and second potentials were 0.2 V and […], respectively, […]

[4] = Storage stability of reagent solution (response current of sensors made with stored vs fresh reagent solution); type: physicochemical
From the text: A sensor having the configuration illustrated in FIG. 1 was manufactured. The detailed procedure will now be described. First, by sputtering palladium, 8 nm-thick conductive layer 3 was deposited on substrate 2 which was 30 mm in length, 7 mm in width and 0.2 mm in thickness and which contained polyethylene terephthalate as its main component. Thereafter, a 0.1 mm-width non-conductive track was formed by laser ablation, to form electrodes 31 to 33. Electrode 31 was designed to function as a working electrode, electrode 32 as a counter electrode, and electrode 33 as a sensing electrode.
Using a microsyringe, 1.2 μL of each reagent solution was applied to form reagent layer 4 in a shape of 2.2 mm diameter-circular. After formation of reagent layer 4, spacer 5 (0.145 mm thick) having a cut-out with a length of 3.4 mm a width of 1.2 mm and cover 6 were sequentially attached to the substrate having the electrodes formed thereon. In this way a sensor was manufactured that has a capillary having a volume of 0.6 μL. […]
Response current values of each sensor were measured using a series of glucose solutions of known concentrations.
By adding as an additive imidazole, histamine, histidine, 2-aminoimidazole, 4,5-bis(hydroxymethyl)imidazole, 1,2,4-triazole, 3-amino-1,2,4-triazole, 4-amino-1,2,4-triazole, 3,5-diamino-1,2,4-triazole, 2-methylimidazole, or 1,2-dimethylimidazole, reagent solutions were prepared that contain the same composition as reagent solution C except the type and concentration of the additive. The concentrations of the additives are as indicated in Tables below and the accompanying drawings.
Further, sensors were manufactured using the same reagent solutions stored at 25° C. and 5% humidity for 24 hours after preparation. […]

[5] = Redox / oxidation potentials stated in the description; type: physicochemical
[6] = cited from earlier work; for redox potential: coenzymes and phenanthroline quinone, background values

Compound: NCCCCN [Butanediamine, reference compound]
Sensor stability % change in response current value between before and after 24 hours exposure at 30° C. and 80% humidity [1]: −51%

Compound: O=C1C(=O)c2cc(S(=O)(=O)[O-])ccc2-c2ccccc21.[Na+] [Sodium 9,10-phenanthrenequinone-2-sulfonate]
solubility [2]: 80 mM
Eox (V) [3]: −0.12 V
Ered (V) [3]: −0.18 V
EO′ (V) [(Ered + Eox)/2] [3]: −0.15 V

Compound: O=C1C(=O)c2cc(S(=O)(=O)[O-])ccc2-c2ccc(S(=O)(=O)[O-])cc21.[Na+].[Na+] [Disodium 9,10-phenanthrenequinone-2,7-disulfonate]
Solubility in water [2]: ≥200 mM
Eox (V) [3]: −0.06 V
Ered (V) [3]: −0.18 V
EO′ (V) [(Ered + Eox)/2] [3]: −0.12 V

Compound: O=C1C(=O)c2ccccc2-c2ccccc21 [9,10-phenanthrenequinone]
redox potential of exemplary electron acceptors [5]: −180 mV

Compound: Ethyleneamine [reference compound]
Sensor stability % change in response current value between before and after 24 hours exposure at 30° C. and 80% humidity [1]: −77%

Compound: Nc1nc[nH]n1 [3-Amino-1,2,4-triazole]
Reagent solution stability % change in response current value between before and after 24 hours storage at 25° C. [4]: 0%
change in the response current value after the exposure test [1]: relatively small change in the response current value
Sensor stability % change in response current value between before and after 24 hours exposure at 30° C. and 80% humidity [1]: −4%

Compound: Cc1cc2nc3c(=O)[nH]c(=O)nc-3n(C[C@H](O)[C@H](O)[C@H](O)COP(=O)(O)OP(=O)(O)OC[C@H]3O[C@@H](n4cnc5c(N)ncnc54)[C@H](O)[C@@H]3O)c2cc1C [FAD, flavin adenine dinucleotide]
redox potential [6]: approximately −300 mV

Compound: O=C(O)c1cc(C(=O)O)c2c(n1)C(=O)C(=O)c1cc(C(=O)O)[nH]c1-2 [PQQ, pyrroloquinoline quinone]
redox potential [6]: approximately −200 mV

Compound: NCCN [Ethylenediamine, reference compound]
Reagent solution stability % change in response current value between before and after 24 hours storage at 25° C. [4]: −3%
Sensor stability % change in response current value between before and after 24 hours exposure at 30° C. and 80% humidity [1]: −45%

Compound: O=C1C(=O)c2cccnc2-c2ncccc21 [phenanthroline quinone]
redox potential [6]: approximately 0 mV

Compound: O=C1O[C@H]([C@@H](O)CO)C(O)=C1O [ascorbic acid]
oxidation potential ([6]; interfering substance, background value): approximately −140 mV

Compound: NCCCC[C@H](N)C(=O)O [Lysine, reference compound]
Reagent solution stability % change in response current value between before and after 24 hours storage at 25° C. [4]: −20%
Sensor stability % change in response current value between before and after 24 hours exposure at 30° C. and 80% humidity [1]: −31%

Compound: Nc1n[nH]c(N)n1 [3,5-Diamino-1,2,4-triazole]
Reagent solution stability % change in response current value between before and after 24 hours storage at 25° C. ([4]; additive in reagent solution C composition (PQSA, FAD-GDH), additive conc. 1.0-5.0 mM): −1%
change in the response current value after the exposure test [1]: relatively small change in the response current value
Sensor stability % change in response current value between before and after 24 hours exposure at 30° C. and 80% humidity [1]: −2%

Compound: Nn1cnnc1 [4-Amino-1,2,4-triazole]
Reagent solution stability % change in response current value between before and after 24 hours storage at 25° C. [4]: −6%
change in the response current value after the exposure test [1]: relatively small change in the response current value
Sensor stability % change in response current value between before and after 24 hours exposure at 30° C. and 80% humidity [1]: −4%

Compound: OCc1nc[nH]c1CO [4,5-Bis(hydroxymethyl) imidazole, 4,5-bis(hydroxymethyl)imidazole]
Reagent solution stability % change in response current value between before and after 24 hours storage at 25° C. [4]: −14%
change in the response current value after the exposure test [1]: relatively small change in the response current value
Sensor stability % change in response current value between before and after 24 hours exposure at 30° C. and 80% humidity [1]: −11%

Compound: c1nc[nH]n1 [1,2,4-Triazole]
Reagent solution stability % change in response current value between before and after 24 hours storage at 25° C. [4]: −12%
change in the response current value after the exposure test [1]: relatively small change in the response current value
Sensor stability % change in response current value between before and after 24 hours exposure at 30° C. and 80% humidity [1]: −14%

Compound: O=C1C(=O)c2cc(S(=O)(=O)O)ccc2-c2ccccc21 [9,10-phenanthrenequinone-2-sulfonic acid]
redox potential of exemplary electron acceptors [5]: −140 mV

Compound: N=C(N)NCCC[C@H](N)C(=O)O [Arginine, reference compound]
Reagent solution stability % change in response current value between before and after 24 hours storage at 25° C. [4]: −25%
Sensor stability % change in response current value between before and after 24 hours exposure at 30° C. and 80% humidity [1]: −12%

Second part, led by results:

solubility ([2]; read-out: Solubility in water): 1 mM (≈ 253 µg/mL)
Eox (V) [3]: −0.10 V
Ered (V) [3]: −0.13 V
EO′ (V) [(Ered + Eox)/2] [3]: −0.12 V
Compound: O=C1C(=O)c2cc([N+](=O)[O-])ccc2-c2ccccc21 [Compound A]

Reagent solution stability % change in response current value between before and after 24 hours storage at 25° C. [4]: −6%
Sensor stability % change in response current value between before and after 24 hours exposure at 30° C. and 80% humidity [1]: −7%
Compound: Nc1ncc[nH]1 [2-Aminoimidazole]
change in the response current value after the exposure test [1]: relatively small change in the response current value

Reagent solution stability % change in response current value between before and after 24 hours storage at 25° C. [4]: −2%
Sensor stability % change in response current value between before and after 24 hours exposure at 30° C. and 80% humidity [1]: −3%
Compound: NCCc1c[nH]cn1 [Histamine]
change in the response current value after the exposure test [1]: relatively small change in the response current value

Reagent solution stability % change in response current value between before and after 24 hours storage at 25° C. [4]: 2%
Sensor stability % change in response current value between before and after 24 hours exposure at 30° C. and 80% humidity [1]: −44%
Compound: Cc1nccn1C [1,2-Dimethylimidazole]

solubility ([2]; read-out: Solubility in water): 1 mM (≈ 223 µg/mL)
Eox (V) [3]: −0.19 V
Ered (V) [3]: −0.23 V
EO′ (V) [(Ered + Eox)/2] [3]: −0.21 V
Compound: Nc1ccc2c(c1)C(=O)C(=O)c1ccccc1-2 [Compound B]

solubility ([2]; read-out: Solubility in water): 50 mM
Eox (V) [3]: −0.15 V
Ered (V) [3]: −0.23 V
EO′ (V) [(Ered + Eox)/2] [3]: −0.19 V
Compound: O=C([O-])c1cc(C(=O)[O-])cc(-c2ccc3c(c2)C(=O)C(=O)c2ccccc2-3)c1.[Na+].[Na+] [Compound J]

solubility ([2]; read-out: Solubility in water): 20 mM
Eox (V) [3]: −0.14 V
Ered (V) [3]: −0.21 V
EO′ (V) [(Ered + Eox)/2] [3]: −0.18 V
Compound: O=C1C(=O)c2cc(-c3ccc(S(=O)(=O)[O-])cc3)ccc2-c2ccccc21.[Na+] [Compound H′]

solubility ([2]; read-out: Solubility in water): 5 mM
Eox (V) [3]: −0.14 V
Ered (V) [3]: −0.22 V
EO′ (V) [(Ered + Eox)/2] [3]: −0.18 V
Compound: O=C([O-])c1ccc(-c2ccc3c(c2)C(=O)C(=O)c2ccccc2-3)cc1.[Na+] [Compound I]

redox potential of exemplary electron acceptors [5]: −16 mV
Compound: O=C1C=C(S(=O)(=O)O)c2ccccc2C1=O [1,2-naphthoquinone-4-sulfonic acid]

Reagent solution stability % change in response current value between before and after 24 hours storage at 25° C. [4]: −7%
Sensor stability % change in response current value between before and after 24 hours exposure at 30° C. and 80% humidity [1]: −12%
Compound: N[C@@H](Cc1c[nH]cn1)C(=O)O [Histidine]
change in the response current value after the exposure test [1]: relatively small change in the response current value

Reagent solution stability % change in response current value between before and after 24 hours storage at 25° C. [4]: 1%
Sensor stability % change in response current value between before and after 24 hours exposure at 30° C. and 80% humidity [1]: −44%
Compound: Cc1ncc[nH]1 [2-Methylimidazle, 2-methylimidazole]

solubility ([2]; read-out: Solubility in water): 20 mM
Eox (V) [3]: −0.14 V
Ered (V) [3]: −0.22 V
EO′ (V) [(Ered + Eox)/2] [3]: −0.18 V
Compound: O=C(NCCS(=O)(=O)[O-])c1ccc(-c2ccc3c(c2)C(=O)C(=O)c2ccccc2-3)cc1.[Na+] [Compound I′]
